Test results published in publication PMC6681697, “One-Step ^18F-Labeling and Preclinical Evaluation of Prostate-Specific Membrane Antigen Trifluoroborate Probes for Cancer Imaging” (Journal of Nuclear Medicine, 2019).

Tests used:
[1] = Distribution coefficient (LogD7.4), shake flask method; assay type: physicochemical; details: n-octanol / phosphate buffer 0.1 M pH 7.4; n = 3
Method: LogD7.4 values were measured using the shake flask method. Briefly, an aliquot of ^18F-labeled tracer was added to a vial containing 2.5 mL of n-octanol and 2.5 mL of phosphate buffer (0.1 M, pH 7.4). The mixture was vortexed for 2 min and then centrifuged at 3,000g for 10 min. A sample of the n-octanol (0.1 mL) and buffer (0.1 mL) layers was counted using a γ-counter. Values of LogD7.4 were calculated using the following equation: LogD7.4 = log10 [(counts in n-octanol phase)/(counts in buffer phase)].

PSMA = molecular target: T1, PSMA (Homo sapiens, UniProt Q04609); test: In vitro competition binding assay on LNCaP cells with ^18F-DCFPyL as radioligand
T1 construct: because it expresses PSMA endogenously and is commonly used to evaluate PSMA-targeting radiotracers; endogenous in cells; host or cells: LNCaP cells
T1 sequence (Q04609 whole entry): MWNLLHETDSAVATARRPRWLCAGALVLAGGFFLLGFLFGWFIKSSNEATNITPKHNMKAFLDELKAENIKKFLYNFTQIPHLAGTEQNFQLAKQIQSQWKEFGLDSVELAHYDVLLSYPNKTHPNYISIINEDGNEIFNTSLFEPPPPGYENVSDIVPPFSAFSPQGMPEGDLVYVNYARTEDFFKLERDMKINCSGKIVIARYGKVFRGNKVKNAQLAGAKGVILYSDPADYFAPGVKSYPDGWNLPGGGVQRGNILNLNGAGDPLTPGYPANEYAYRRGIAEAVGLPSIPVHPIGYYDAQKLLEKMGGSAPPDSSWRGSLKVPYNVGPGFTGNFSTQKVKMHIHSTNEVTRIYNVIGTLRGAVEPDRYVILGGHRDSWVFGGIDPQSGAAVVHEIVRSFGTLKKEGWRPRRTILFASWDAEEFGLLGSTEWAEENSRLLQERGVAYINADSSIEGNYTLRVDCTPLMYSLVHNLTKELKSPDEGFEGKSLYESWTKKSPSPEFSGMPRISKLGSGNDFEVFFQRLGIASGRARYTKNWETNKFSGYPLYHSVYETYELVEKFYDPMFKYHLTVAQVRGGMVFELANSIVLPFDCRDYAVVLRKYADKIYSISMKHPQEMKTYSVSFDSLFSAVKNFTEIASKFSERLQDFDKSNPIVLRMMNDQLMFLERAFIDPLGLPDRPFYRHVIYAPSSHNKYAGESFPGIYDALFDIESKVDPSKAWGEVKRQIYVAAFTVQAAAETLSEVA
Method: LNCaP cells were plated onto a 24-well poly-D-lysine coated plate for 48 h (400,000/well). […] Nonspecific binding was determined in the presence of 10 μM unlabeled DCFPyL. The assay mixtures were incubated for 1 h at 37°C with gentle agitation followed by 2 washes with cold HEPES buffered saline. A trypsin solution (0.25%, 400 μL) was then added to each well to harvest the cells. Radioactivity was measured by γ-counting, and Ki values were calculated using the “1 site—fit Ki” built-in model in Prism 7 (GraphPad).

LNCaP xenografts = test: Ex vivo biodistribution and blocking studies in mice bearing LNCaP xenografts; details: for tumor uptake: LNCaP tumor
Method: Imaging and biodistribution experiments were performed using NODSCID IL2RγKO male mice. All experiments were conducted according to the guidelines established by the Canadian Council on Animal Care and approved by the Animal Ethics Committee of the University of British Columbia. Mice were anesthetized by inhalation with 2% isoflurane in oxygen and implanted subcutaneously with 1 × 10^7 LNCaP cells behind the left shoulder. The mice were imaged or used in biodistribution studies once the tumor reached 5–8 mm in diameter (5–6 wk).
For biodistribution and blocking studies, the mice were injected with 1–3 MBq of radiotracer. At 60 min, the mice were anesthetized with 2% isoflurane inhalation and euthanized by CO2 inhalation. Blood was withdrawn by cardiac puncture, and the organs and tissues of interest were collected, weighed, and counted using an automatic γ-counter (PerkinElmer). Uptake values were expressed as the percentage of the injected dose per gram of tissue (%ID/g).
A standard 1-way ANOVA was performed to determine whether statistically significant differences in tumor uptake occurred between radiotracers. Each radiotracer was compared with ^18F-DCFPyL using the Dunnett test (a many-to-one t test comparison). This analysis was also performed for kidney and blood activity and for tumor-to-blood and tumor-to-muscle ratios. Reported P values were adjusted for multiple comparisons. The analysis was performed using Prism 8 (GraphPad). […]
Statistical analyses were performed using GradPad prism 7. Multiple t tests were performed to compare biodistribution in unblocked and blocked mice, multiple comparisons were corrected using the Holm-Sidak method. The difference was considered statistically significant when p value was < 0.05.
Supplemental Table 1 – Complete biodistribution study for compounds [18F]1–3 […]
Tissue 1h 1h blocked 1h 1h blocked 1h 1h blocked
(%ID/g) n = 8 n = 4 n = 6 n = 4 n = 8 n = 5 […]
(1 picture or pasted object on this page, not shown here)

[2] = 1 h after injection, 1-way ANOVA, Dunnett test
[3] = 1 h blocked (coinjection of DCFPyL 0.5 mg)

In the case of O=C(O)CC[C@H](NC(=O)N[C@@H](CCCCNC(=O)[C@H](Cc1ccc2ccccc2c1)NC(=O)[C@H]1CC[C@H](CNC(=O)Cn2cc(C[n+]3ccc([B-](F)(F)F)cc3)nn2)CC1)C(=O)O)C(=O)O [^18F-6], the LogD7.4 [1] is reported as “most lipophilic compound of the series”, the logD at 2 min [1] is reported as -2.28 ± 0.01 and the Ki (PSMA) is reported as 1.9 ± 0.68 nM. The “intestinal activity compared with ^18F-DCFPyL” value (LNCaP xenografts; 1 h after injection) was “significantly higher intestinal activity than ^18F-DCFPyL”, the “T/B (tumor-to-blood ratio)” value (LNCaP xenografts; 1 h after injection, unblocked) was 19.80 ± 7.23 and the “T/K (tumor-to-kidney ratio)” value (LNCaP xenografts; 1 h after injection, unblocked) was 0.14 ± 0.02. For the same compound, the “T/M (tumor-to-muscle ratio)” value (LNCaP xenografts; 1 h after injection, unblocked) was 72.20 ± 13.46, the adrenal uptake (LNCaP xenografts; 1 h after injection, unblocked) was 2.14 ± 0.61 %ID/g and the blood uptake (LNCaP xenografts; 1 h after injection, unblocked) was 0.68 ± 0.26 %ID/g. For the same compound, the bone uptake (LNCaP xenografts; 1 h after injection, unblocked) was 0.56 ± 0.14 %ID/g, the brain uptake (LNCaP xenografts; 1 h after injection, unblocked) was 0.03 ± 0.01 %ID/g and the fat uptake (LNCaP xenografts; 1 h after injection, unblocked) was 0.38 ± 0.14 %ID/g. It also gave a heart uptake (LNCaP xenografts; 1 h after injection, unblocked) of 0.22 ± 0.03 %ID/g, an intestine uptake (LNCaP xenografts; 1 h after injection, unblocked) of 23.05 ± 4.39 %ID/g and a kidney uptake (LNCaP xenografts; 1 h after injection, unblocked) of 83.22 ± 6.07 %ID/g. The liver uptake (LNCaP xenografts; 1 h after injection, unblocked) was 0.98 ± 0.22 %ID/g, the lung uptake (LNCaP xenografts; 1 h after injection, unblocked) was 1.05 ± 0.14 %ID/g and the muscle uptake (LNCaP xenografts; 1 h after injection, unblocked) was 0.17 ± 0.02 %ID/g. It also gave a pancreas uptake (LNCaP xenografts; 1 h after injection, unblocked) of 0.26 ± 0.06 %ID/g, a spleen uptake (LNCaP xenografts; 1 h after injection, unblocked) of 1.77 ± 0.70 %ID/g and a stomach uptake (LNCaP xenografts; 1 h after injection, unblocked) of 1.17 ± 1.35 %ID/g. The testes uptake (LNCaP xenografts; 1 h after injection, unblocked) was 0.33 ± 0.05 %ID/g, the “tumor uptake compared with ^18F-DCFPyL” value (LNCaP xenografts; [2]) was “No statistically significant differences” and the “T/B (tumor-to-blood ratio)” value (LNCaP xenografts; [3]) was 0.72 ± 0.43. For the same compound, the “T/K (tumor-to-kidney ratio)” value (LNCaP xenografts; [3]) was 0.29 ± 0.07, the “T/M (tumor-to-muscle ratio)” value (LNCaP xenografts; [3]) was 3.78 ± 0.17 and the adrenal uptake (LNCaP xenografts; [3]) was 0.20 ± 0.04 %ID/g. It also gave a blood uptake (LNCaP xenografts; [3]) of 1.64 ± 2.58 %ID/g, a bone uptake (LNCaP xenografts; [3]) of 0.57 ± 0.37 %ID/g and a brain uptake (LNCaP xenografts; [3]) of 0.03 ± 0.03 %ID/g. For the same compound, the fat uptake (LNCaP xenografts; [3]) was 0.06 ± 0.02 %ID/g, the heart uptake (LNCaP xenografts; [3]) was 0.17 ± 0.07 %ID/g and the intestine uptake (LNCaP xenografts; [3]) was 24.50 ± 4.86 %ID/g. For the same compound, the kidney uptake (LNCaP xenografts; [3]) was 1.30 ± 0.25 %ID/g, the liver uptake (LNCaP xenografts; [3]) was 0.87 ± 0.17 %ID/g and the lung uptake (LNCaP xenografts; [3]) was 0.43 ± 0.23 %ID/g. The muscle uptake (LNCaP xenografts; [3]) was 0.10 ± 0.02 %ID/g, the pancreas uptake (LNCaP xenografts; [3]) was 0.16 ± 0.14 %ID/g and the spleen uptake (LNCaP xenografts; [3]) was 0.18 ± 0.10 %ID/g. It also gave a stomach uptake (LNCaP xenografts; [3]) of 0.88 ± 0.41 %ID/g, a testes uptake (LNCaP xenografts; [3]) of 0.14 ± 0.04 %ID/g and a tumor uptake (LNCaP xenografts; 1 h after injection, unblocked, listed as 6) of 11.9 ± 2.3 %ID/g. The tumor uptake (LNCaP xenografts; 1 h after injection, unblocked, listed as [18F]6) was 11.94 ± 2.29 %ID/g and the tumor uptake (LNCaP xenografts; [3]) was 0.37 ± 0.10 %ID/g.
In the case of C[N+](C)(Cc1cn(Cc2ccc(C(=O)NCCCC[C@H](NC(=O)N[C@@H](CCC(=O)O)C(=O)O)C(=O)O)cn2)nn1)C[B-](F)(F)F [^18F-3], the logD at 2 min [1] is reported as -4.01 ± 0.14, the Ki (PSMA) is reported as 25.9 ± 5.7 nM and the “T/B (tumor-to-blood ratio)” value (LNCaP xenografts; 1 h after injection, unblocked) is reported as 9.68 ± 4.53. The “T/K (tumor-to-kidney ratio)” value (LNCaP xenografts; 1 h after injection, unblocked) was 0.11 ± 0.08, the “T/M (tumor-to-muscle ratio)” value (LNCaP xenografts; 1 h after injection, unblocked) was 29.00 ± 12.40 and the adrenal uptake (LNCaP xenografts; 1 h after injection, unblocked) was 1.35 ± 0.52 %ID/g. It also gave a blood uptake (LNCaP xenografts; 1 h after injection, unblocked) of 0.50 ± 0.16 %ID/g, a bone uptake (LNCaP xenografts; 1 h after injection, unblocked) of 0.20 ± 0.06 %ID/g and a brain uptake (LNCaP xenografts; 1 h after injection, unblocked) of 0.03 ± 0.01 %ID/g. It also gave a fat uptake (LNCaP xenografts; 1 h after injection, unblocked) of 0.35 ± 0.15 %ID/g, a heart uptake (LNCaP xenografts; 1 h after injection, unblocked) of 0.19 ± 0.07 %ID/g and an intestine uptake (LNCaP xenografts; 1 h after injection, unblocked) of 0.28 ± 0.07 %ID/g. It also gave a kidney uptake (LNCaP xenografts; 1 h after injection, unblocked) of 51.80 ± 24.10 %ID/g, a liver uptake (LNCaP xenografts; 1 h after injection, unblocked) of 1.17 ± 0.28 %ID/g and a lung uptake (LNCaP xenografts; 1 h after injection, unblocked) of 0.66 ± 0.19 %ID/g. The muscle uptake (LNCaP xenografts; 1 h after injection, unblocked) was 0.17 ± 0.07 %ID/g, the pancreas uptake (LNCaP xenografts; 1 h after injection, unblocked) was 0.27 ± 0.13 %ID/g and the spleen uptake (LNCaP xenografts; 1 h after injection, unblocked) was 0.84 ± 0.52 %ID/g. For the same compound, the stomach uptake (LNCaP xenografts; 1 h after injection, unblocked) was 0.08 ± 0.04 %ID/g, the testes uptake (LNCaP xenografts; 1 h after injection, unblocked) was 0.30 ± 0.09 %ID/g and the “kidney accumulation compared with ^18F-DCFPyL” value (LNCaP xenografts; [2]) was “lower kidney accumulation”. For the same compound, the “tumor uptake compared with ^18F-DCFPyL” value (LNCaP xenografts; [2]) was “lower tumor uptake than ^18F-DCFPyL”, the “T/B (tumor-to-blood ratio)” value (LNCaP xenografts; [3]) was 1.17 ± 0.70 and the “T/K (tumor-to-kidney ratio)” value (LNCaP xenografts; [3]) was 0.16 ± 0.05. The “T/M (tumor-to-muscle ratio)” value (LNCaP xenografts; [3]) was 3.54 ± 1.43, the adrenal uptake (LNCaP xenografts; [3]) was 0.24 ± 0.07 %ID/g and the blood uptake (LNCaP xenografts; [3]) was 0.30 ± 0.10 %ID/g. For the same compound, the bone uptake (LNCaP xenografts; [3]) was 0.16 ± 0.06 %ID/g, the brain uptake (LNCaP xenografts; [3]) was 0.02 ± 0.00 %ID/g and the fat uptake (LNCaP xenografts; [3]) was 0.16 ± 0.10 %ID/g. For the same compound, the heart uptake (LNCaP xenografts; [3]) was 0.12 ± 0.06 %ID/g, the intestine uptake (LNCaP xenografts; [3]) was 0.23 ± 0.06 %ID/g and the kidney uptake (LNCaP xenografts; [3]) was 2.12 ± 0.73 %ID/g. For the same compound, the liver uptake (LNCaP xenografts; [3]) was 1.25 ± 0.17 %ID/g, the lung uptake (LNCaP xenografts; [3]) was 0.30 ± 0.11 %ID/g and the muscle uptake (LNCaP xenografts; [3]) was 0.09 ± 0.03 %ID/g. For the same compound, the pancreas uptake (LNCaP xenografts; [3]) was 0.08 ± 0.03 %ID/g, the spleen uptake (LNCaP xenografts; [3]) was 0.09 ± 0.05 %ID/g and the stomach uptake (LNCaP xenografts; [3]) was 0.06 ± 0.02 %ID/g. The testes uptake (LNCaP xenografts; [3]) was 0.10 ± 0.03 %ID/g, the tumor uptake (LNCaP xenografts; 1 h after injection, unblocked, listed as 3) was 4.4 ± 0.95 %ID/g and the tumor uptake (LNCaP xenografts; 1 h after injection, unblocked, listed as [18F]3) was 4.36 ± 0.95 %ID/g. The tumor uptake (LNCaP xenografts; [3]) was 0.35 ± 0.21 %ID/g.
